The source of these data is patent publication US20240124442A1, “TRICYCLIC-AMIDO-BICYCLIC PRMT5 INHIBITORS” (AMGEN INC., priority 2021, published 2024).

Molecules are shown by their SMILES.

As a reminder, the IC50 is the concentration that gives 50% inhibition.

The subject of one assay is HCT116 MTAP null cells. As to the kind of experiment: HCT116 MTAP null cell line proliferation / cell viability (CellTiter-Glo, 6 days). In kind it is cell-based. The conditions noted are these: 144 h; HCT116 MTAP null cells, 6 days treatment, CellTiter-Glo cell viability; read-out: HCT-116 MTAP null IC50. The procedure, abridged:
(§1)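 Viability read by CellTiter-Glo luminescence after 6 days of compound treatment of HCT116 WT and MTAP-null cells (RPMI 1640, 10% FBS). Dose series were 1:3 steps from 1 or 10 μM (8–9 points), or 1:2 steps from 10 or 50 μM (22 points). IC50 from 4-parameter logistic or fixed-slope sigmoidal fit.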
(In general: ATP-based viability assays read luminescence as a measure of living cells.)

The next assay deals with HCT116 WT cells. As to the kind of experiment: HCT116 WT (parent) cell line proliferation / cell viability (CellTiter-Glo, 6 days). Type of assay: cell-based. The conditions noted are these: Homo sapiens, HCT-116, 144 h, 6 days treatment. The procedure, abridged: as §1

Turning to `Cc1cc2nc(N)c3c(cnn3C)c2cc1C(=O)N(C)[C@@H]1COCc2nc(C(F)(F)F)ccc21` [Example 520, 4-amino-N,3,7-trimethyl-N-((5S)-2-(trifluoromethyl)-5,8-dihydro-6H-pyrano[3,4-b]pyridin-5-yl)-3H-pyrazolo[3,4-c]quinoline-8-carboxamide], the IC50 with HCT116 MTAP null cells stood at 25 nM; with HCT116 WT cells, 2420 nM.
For the molecule `Cc1nn(C)c2c1c(N)nc1cnc(C(=O)N(C)[C@@H]3COCc4cc(C#N)ccc43)cc12` [Example 521, 4-amino-N-((4S)-7-cyano-3,4-dihydro-1H-2-benzopyran-4-yl)-N,1,3-trimethyl-1H-pyrazolo[4,3-c][1,7]naphthyridine-8-carboxamide], the values for the IC50 in the assay with HCT116 MTAP null cells and in the assay with HCT116 WT cells were 168 nM and 14100 nM, respectively.
Consider `CN(C(=O)c1ccc2nc(N)c3cnn(C)c3c2c1)[C@@H]1COc2cc(C3CC3)ccc21` [Example 615, 4-amino-N-((3S)-6-cyclopropyl-2,3-dihydro-1-benzofuran-3-yl)-N,1-dimethyl-1H-pyrazolo[4,3-c]quinoline-8-carboxamide], for which the IC50 in the assay with HCT116 MTAP null cells turned out to be 14 nM; with HCT116 WT cells, 1310 nM.
As for `CN(C(=O)c1ccc2nc(N)c3cnn(C)c3c2c1)[C@@H]1COc2cc(-c3ccn(C)c3)ccc21` [Example 616, 4-amino-N,1-dimethyl-N-((3S)-6-(1-methyl-1H-pyrrol-3-yl)-2,3-dihydro-1-benzofuran-3-yl)-1H-pyrazolo[4,3-c]quinoline-8-carboxamide], the IC50 in the assay on HCT116 MTAP null cells amounted to 32 nM; with HCT116 WT cells it was 3670 nM.
In the case of `CN(C(=O)c1ccc2nc(N)c3cnn(C)c3c2c1)[C@@H]1COc2cc(C3=CCCCC3)ccc21` [Example 617, 4-amino-N-((3S)-6-(1-cyclohexen-1-yl)-2,3-dihydro-1-benzofuran-3-yl)-N,1-dimethyl-1H-pyrazolo[4,3-c]quinoline-8-carboxamide], the IC50 with HCT116 MTAP null cells worked out at 55 nM; in the assay on HCT116 WT cells it was 1650 nM.
As for `CN(C(=O)c1ccc2nc(N)c3cnn(C)c3c2c1)[C@@H]1COc2cc(C3=CCOCC3)ccc21` [Example 618, 4-amino-N-((3S)-6-(3,6-dihydro-2H-pyran-4-yl)-2,3-dihydro-1-benzofuran-3-yl)-N,1-dimethyl-1H-pyrazolo[4,3-c]quinoline-8-carboxamide], the IC50 came out at 10 nM in the assay on HCT116 MTAP null cells and 786 nM with HCT116 WT cells.
With `CN(C(=O)c1ccc2nc(N)c3cnn(C)c3c2c1)[C@@H]1COc2cc(C3=CCC(F)(F)CC3)ccc21` [Example 619, 4-amino-N-((3S)-6-(4,4-difluoro-1-cyclohexen-1-yl)-2,3-dihydro-1-benzofuran-3-yl)-N,1-dimethyl-1H-pyrazolo[4,3-c]quinoline-8-carboxamide], the IC50 with HCT116 MTAP null cells amounted to 17 nM; with HCT116 WT cells, 649 nM.
On to `CN(C(=O)c1ccc2nc(N)c3cnn(C)c3c2c1)[C@@H]1COc2cc(-c3cnn(C(F)(F)F)c3)ccc21` [Example 620, 4-amino-N,1-dimethyl-N-((3S)-6-(1-(trifluoromethyl)-1H-pyrazol-4-yl)-2,3-dihydro-1-benzofuran-3-yl)-1H-pyrazolo[4,3-c]quinoline-8-carboxamide], for which the IC50 with HCT116 MTAP null cells is 6 nM; in the assay on HCT116 WT cells, 634 nM.
Take `CCN(C(=O)c1ccc2nc(N)c3c(c2c1)CO[C@@H]3C)[C@@H]1COCc2cc(C3CC3)ccc21` [Example 621, (3R)-4-amino-N-((4S)-7-cyclopropyl-3,4-dihydro-1H-2-benzopyran-4-yl)-N-ethyl-3-methyl-1,3-dihydrofuro[3,4-c]quinoline-8-carboxamide]: the IC50 in the assay on HCT116 MTAP null cells stood at 25 nM; in the assay with HCT116 WT cells, 1040 nM.
As to `CN(C(=O)c1ccc2nc(N)c3cnn(C)c3c2c1)[C@@H]1COc2cc(-c3cn[nH]c3)ccc21` [Example 622, (S)—N-(6-(1H-pyrazol-4-yl)-2,3-dihydrobenzofuran-3-yl)-4-amino-N,1-dimethyl-1H-pyrazolo[4,3-c]quinoline-8-carboxamide], the IC50 turned out to be 14 nM in the assay on HCT116 MTAP null cells and 877 nM in the assay on HCT116 WT cells.
Take `CN(C(=O)c1ccc2nc(N)c3cnn(C)c3c2c1)[C@@H]1COc2cc(C3COC3)ccc21` [Example 625, 4-amino-N,1-dimethyl-N-((3S)-6-(3-oxetanyl)-2,3-dihydro-1-benzofuran-3-yl)-1H-pyrazolo[4,3-c]quinoline-8-carboxamide]: the IC50 was determined as 29 nM with HCT116 MTAP null cells and 2320 nM with HCT116 WT cells.
As for `CN(C(=O)c1ccc2nc(N)c3cnn(C)c3c2c1)[C@@H]1COc2cc(-c3ccoc3)ccc21` [Example 626, 4-amino-N-((3S)-6-(3-furanyl)-2,3-dihydro-1-benzofuran-3-yl)-N,1-dimethyl-1H-pyrazolo[4,3-c]quinoline-8-carboxamide], the results for the half-maximal inhibitory concentration (IC50) in the assay on HCT116 MTAP null cells and in the assay with HCT116 WT cells were 6 nM and 384 nM, respectively.
As to `CN(C(=O)c1ccc2nc(N)c3cnn(C)c3c2c1)[C@@H]1COc2cc(-c3ccncc3)ccc21` [Example 627, 4-amino-N,1-dimethyl-N-((3S)-6-(4-pyridinyl)-2,3-dihydro-1-benzofuran-3-yl)-1H-pyrazolo[4,3-c]quinoline-8-carboxamide], the IC50 with HCT116 MTAP null cells is 4 nM; with HCT116 WT cells, 136 nM.
In the case of `CN(C(=O)c1ccc2nc(N)c3cnn(C)c3c2c1)[C@@H]1COc2cc(-c3cccnc3)ccc21` [Example 628, 4-amino-N,1-dimethyl-N-((3S)-6-(3-pyridinyl)-2,3-dihydro-1-benzofuran-3-yl)-1H-pyrazolo[4,3-c]quinoline-8-carboxamide], the IC50 turned out to be 5 nM with HCT116 MTAP null cells and 511 nM in the assay on HCT116 WT cells.
For `CN(C(=O)c1ccc2nc(N)c3cnn(C)c3c2c1)[C@@H]1COc2cc(-c3cnn(C)c3)ccc21` [Example 629, 4-amino-N,1-dimethyl-N-((3S)-6-(1-methyl-1H-pyrazol-4-yl)-2,3-dihydro-1-benzofuran-3-yl)-1H-pyrazolo[4,3-c]quinoline-8-carboxamide], in that order: 4 nM and 691 nM.
As to `CN(C(=O)c1ccc2nc(N)c3cnn(C)c3c2c1)[C@@H]1COc2cc(-c3ccnn3C)ccc21` [Example 630, 4-amino-N,1-dimethyl-N-((3S)-6-(1-methyl-1H-pyrazol-5-yl)-2,3-dihydro-1-benzofuran-3-yl)-1H-pyrazolo[4,3-c]quinoline-8-carboxamide], the IC50 in the assay with HCT116 MTAP null cells worked out at 3 nM; in the assay with HCT116 WT cells, 222 nM.
In the case of `CN(C(=O)c1ccc2nc(N)c3cnn(C)c3c2c1)[C@@H]1COc2cc(-c3ccn(C)n3)ccc21` [Example 631, 4-amino-N,1-dimethyl-N-((3S)-6-(1-methyl-1H-pyrazol-3-yl)-2,3-dihydro-1-benzofuran-3-yl)-1H-pyrazolo[4,3-c]quinoline-8-carboxamide], the IC50 came to 23 nM in the assay on HCT116 MTAP null cells and 2530 nM in the assay with HCT116 WT cells.
As to `Cc1cc(-c2ccc3c(c2)OC[C@H]3N(C)C(=O)c2ccc3nc(N)c4cnn(C)c4c3c2)co1` [Example 632, 4-amino-N,1-dimethyl-N-((3S)-6-(5-methyl-3-furanyl)-2,3-dihydro-1-benzofuran-3-yl)-1H-pyrazolo[4,3-c]quinoline-8-carboxamide], the values for the IC50 with HCT116 MTAP null cells and in the assay on HCT116 WT cells were 26 nM and 841 nM, respectively.
`Cc1cc(-c2ccc3c(c2)OC[C@H]3N(C)C(=O)c2ccc3nc(N)c4cnn(C)c4c3c2)on1` [Example 633, 4-amino-N,1-dimethyl-N-((3S)-6-(3-methyl-1,2-oxazol-5-yl)-2,3-dihydro-1-benzofuran-3-yl)-1H-pyrazolo[4,3-c]quinoline-8-carboxamide]: the values for the IC50 in the assay with HCT116 MTAP null cells and with HCT116 WT cells were 8 nM and 672 nM, respectively.
For `CN(C(=O)c1ccc2nc(N)c3cnn(C)c3c2c1)[C@@H]1COc2cc(C3=CCCOC3)ccc21` [Example 634, 4-amino-N-((3S)-6-(5,6-dihydro-2H-pyran-3-yl)-2,3-dihydro-1-benzofuran-3-yl)-N,1-dimethyl-1H-pyrazolo[4,3-c]quinoline-8-carboxamide], the IC50 in the assay on HCT116 MTAP null cells is 8 nM; in the assay on HCT116 WT cells it was 524 nM.
Take `CN(C(=O)c1ccc2nc(N)c3cnn(C)c3c2c1)[C@@H]1COc2cc(-c3cscn3)ccc21` [Example 635, 4-amino-N,1-dimethyl-N-((3S)-6-(1,3-thiazol-4-yl)-2,3-dihydro-1-benzofuran-3-yl)-1H-pyrazolo[4,3-c]quinoline-8-carboxamide]: the concentration for half-maximal inhibition (IC50) with HCT116 MTAP null cells was 9 nM; with HCT116 WT cells it was 613 nM.
As for `Cc1ncc(-c2ccc3c(c2)OC[C@H]3N(C)C(=O)c2ccc3nc(N)c4cnn(C)c4c3c2)cn1` [Example 636, 4-amino-N,1-dimethyl-N-((3S)-6-(2-methyl-5-pyrimidinyl)-2,3-dihydro-1-benzofuran-3-yl)-1H-pyrazolo[4,3-c]quinoline-8-carboxamide], the IC50 in the assay on HCT116 MTAP null cells was 13 nM; with HCT116 WT cells it was 1950 nM.
For `CN(C(=O)c1ccc2nc(N)c3cnn(C)c3c2c1)[C@@H]1COc2cc(-c3cnc(=O)[nH]c3)ccc21` [Example 637, 4-amino-N,1-dimethyl-N-((3S)-6-(2-oxo-1,2-dihydro-5-pyrimidinyl)-2,3-dihydro-1-benzofuran-3-yl)-1H-pyrazolo[4,3-c]quinoline-8-carboxamide], the results for the IC50 in the assay on HCT116 MTAP null cells and in the assay on HCT116 WT cells were 339 nM and 32100 nM, respectively.
For `CN(C(=O)c1ccc2nc(N)c3cnn(C)c3c2c1)[C@@H]1COc2cc(-c3ccc(F)nc3)ccc21` [Example 638, 4-amino-N-((3S)-6-(6-fluoro-3-pyridinyl)-2,3-dihydro-1-benzofuran-3-yl)-N,1-dimethyl-1H-pyrazolo[4,3-c]quinoline-8-carboxamide], in that order: 6 nM and 591 nM.
Take `CCn1cc(-c2ccc3c(c2)OC[C@H]3N(C)C(=O)c2ccc3nc(N)c4cnn(C)c4c3c2)cn1` [Example 639, 4-amino-N-((3S)-6-(1-ethyl-1H-pyrazol-4-yl)-2,3-dihydro-1-benzofuran-3-yl)-N,1-dimethyl-1H-pyrazolo[4,3-c]quinoline-8-carboxamide]: the figures for the 50% inhibitory concentration (IC50) in the assay with HCT116 MTAP null cells and in the assay with HCT116 WT cells were 15 nM and 1400 nM, respectively.
